Measured values as given in ChEMBL document CHEMBL1201862, “PubChem BioAssay data set” (2004).
Activity calls are given as the source filed them.

Legend:
[1] = target: T1, Sentrin-specific protease 1 (Homo sapiens, UniProt Q9P0U3); experiment: potency of human SENP1 inhibitors, dose response, biochemical, kinetic FRET (AID 651697); type: functional; conditions: read-out: IC50_Mean
[2] = target: T1, Sentrin-specific protease 1; experiment: Dose response confirmation of small molecule inhibitors of the catalytic domain of the SUMO protease, SENP1 in a FRET assay.; type: functional; conditions: read-out: IC50_Mean
Protein Wnt-3a = Protein Wnt-3a (Mus musculus, UniProt P27467); experiment: Wnt3a-driven reporter signaling inhibition, dose response, selectivity assay for Gli-SUFU antagonist project, Wnt-LIGHT cells, luminescence (AID 651570); type: functional; conditions: read-out: IC50_Mean;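 also: Wnt-LIGHT reporter cells stimulated with conditioned medium from Wnt3a-producing cells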
Melanocortin receptor 4 = Melanocortin receptor 4 (Homo sapiens, UniProt P32245); type: functional, cell-based;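 also: Cell-based assay with luminescence read-out, confirmatory dose-response testing for agonist activity of biased ligands at MC4R; human U2OS cells with tagged receptor and beta-arrestin; potency of agonists that increase receptor coupling to beta-arrestin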
[3] = target: Opioid receptors; mu & delta (Homo sapiens, UniProt P41143+P35372); experiment: agonists of MOR-DOR heterodimerization, dose response, counter-screen for MC4R biased agonist project, cell-based, luminescence (AID 602264); type: functional
[4] = target: T2, ATP-dependent translocase ABCB1 (Homo sapiens, UniProt P08183); experiment: ABCG2 efflux pump inhibitor potency, dose response, Ig-MXP3 cells, JC-1, flow cytometry, set 2 (AID 504566); type: functional; conditions: read-out: EC50_MICROM_;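 also: flow cytometry median green fluorescence of retained JC-1 dye; potency of efflux pump inhibition measured as rising substrate retention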
T2 sequence (P08183 whole entry): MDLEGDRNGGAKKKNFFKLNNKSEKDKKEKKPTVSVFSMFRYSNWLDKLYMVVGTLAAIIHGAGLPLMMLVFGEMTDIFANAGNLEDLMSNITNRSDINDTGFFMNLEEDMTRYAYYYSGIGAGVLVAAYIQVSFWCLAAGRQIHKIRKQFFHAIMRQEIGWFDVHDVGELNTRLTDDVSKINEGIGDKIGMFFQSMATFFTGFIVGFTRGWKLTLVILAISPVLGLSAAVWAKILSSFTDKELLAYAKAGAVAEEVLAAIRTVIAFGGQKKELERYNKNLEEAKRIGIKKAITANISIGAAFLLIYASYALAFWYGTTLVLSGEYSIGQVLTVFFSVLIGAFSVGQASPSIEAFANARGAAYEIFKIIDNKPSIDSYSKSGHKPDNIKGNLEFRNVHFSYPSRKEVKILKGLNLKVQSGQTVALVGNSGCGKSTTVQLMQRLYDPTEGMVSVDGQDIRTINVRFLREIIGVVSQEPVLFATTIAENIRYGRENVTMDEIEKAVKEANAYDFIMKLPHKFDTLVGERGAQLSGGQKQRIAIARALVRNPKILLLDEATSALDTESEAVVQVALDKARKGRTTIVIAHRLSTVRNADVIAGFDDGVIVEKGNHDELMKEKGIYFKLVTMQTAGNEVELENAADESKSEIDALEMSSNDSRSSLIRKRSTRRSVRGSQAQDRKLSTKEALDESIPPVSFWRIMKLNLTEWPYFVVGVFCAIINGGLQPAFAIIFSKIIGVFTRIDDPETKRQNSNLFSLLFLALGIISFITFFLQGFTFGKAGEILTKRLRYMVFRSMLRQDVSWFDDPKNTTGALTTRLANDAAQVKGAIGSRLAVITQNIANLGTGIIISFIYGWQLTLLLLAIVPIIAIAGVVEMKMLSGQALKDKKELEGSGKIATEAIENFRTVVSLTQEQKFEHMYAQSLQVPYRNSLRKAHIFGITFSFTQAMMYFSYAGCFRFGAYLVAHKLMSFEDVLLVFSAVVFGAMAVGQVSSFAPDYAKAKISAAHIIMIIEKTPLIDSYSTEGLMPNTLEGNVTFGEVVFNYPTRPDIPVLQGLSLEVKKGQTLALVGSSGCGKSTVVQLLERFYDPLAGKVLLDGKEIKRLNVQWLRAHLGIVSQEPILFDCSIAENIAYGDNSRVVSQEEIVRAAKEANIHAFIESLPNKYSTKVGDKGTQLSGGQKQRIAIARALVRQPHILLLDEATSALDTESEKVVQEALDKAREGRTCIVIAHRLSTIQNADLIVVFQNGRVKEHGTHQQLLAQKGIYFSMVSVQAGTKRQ

[5] = target: T2, ATP-dependent translocase ABCB1; experiment: ABCB1 efflux inhibitor potency, dose response, Jurkat-DNR cells, JC-1, flow cytometry, set 2 (AID 504569); type: functional; conditions: read-out: EC50_MICROM_;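 also: potency of pump inhibitors that raise cellular JC-1 green fluorescence up to the nicardipine level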
[6] = Fluorescence-based cell-based high throughput dose response assay for inhibitors of the interaction of nucleotide-binding oligomerization domain containing 2 (NOD2) and the receptor-interacting serine-threonine kinase 2 (RIPK2).; type: functional; conditions: Homo sapiens
[7] = target: Photoreceptor-specific nuclear receptor (Homo sapiens, UniProt Q9Y5X4); type: functional, cell-based;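 also: CHO-S cells with Gal4-NCOR and VP16-NR2E3 two-hybrid luciferase reporter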
Beta Lactamase = Beta Lactamase (Pseudomonas aeruginosa, UniProt Q932Y6); experiment: beta-lactamase reporter inhibitor potency, dose response, artefact control for NOD2-RIPK2 interaction inhibitor project, BLA reporter cells, FRET fluorescence (AID 651552); type: functional, cell-based
Fatty acid synthase [8] = target: T3, Fatty acid synthase (Homo sapiens, UniProt P49327); experiment: FAS thioesterase domain inhibitors, dose response, biochemical, endpoint fluorescence intensity, uHTS hits (AID 624327); type: functional;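 also: fluorescence from hydrolysis of an O-methyl fluorescein acyl ester substrate by the enzyme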
T3 sequence (P49327 whole entry, the tested form may be a part): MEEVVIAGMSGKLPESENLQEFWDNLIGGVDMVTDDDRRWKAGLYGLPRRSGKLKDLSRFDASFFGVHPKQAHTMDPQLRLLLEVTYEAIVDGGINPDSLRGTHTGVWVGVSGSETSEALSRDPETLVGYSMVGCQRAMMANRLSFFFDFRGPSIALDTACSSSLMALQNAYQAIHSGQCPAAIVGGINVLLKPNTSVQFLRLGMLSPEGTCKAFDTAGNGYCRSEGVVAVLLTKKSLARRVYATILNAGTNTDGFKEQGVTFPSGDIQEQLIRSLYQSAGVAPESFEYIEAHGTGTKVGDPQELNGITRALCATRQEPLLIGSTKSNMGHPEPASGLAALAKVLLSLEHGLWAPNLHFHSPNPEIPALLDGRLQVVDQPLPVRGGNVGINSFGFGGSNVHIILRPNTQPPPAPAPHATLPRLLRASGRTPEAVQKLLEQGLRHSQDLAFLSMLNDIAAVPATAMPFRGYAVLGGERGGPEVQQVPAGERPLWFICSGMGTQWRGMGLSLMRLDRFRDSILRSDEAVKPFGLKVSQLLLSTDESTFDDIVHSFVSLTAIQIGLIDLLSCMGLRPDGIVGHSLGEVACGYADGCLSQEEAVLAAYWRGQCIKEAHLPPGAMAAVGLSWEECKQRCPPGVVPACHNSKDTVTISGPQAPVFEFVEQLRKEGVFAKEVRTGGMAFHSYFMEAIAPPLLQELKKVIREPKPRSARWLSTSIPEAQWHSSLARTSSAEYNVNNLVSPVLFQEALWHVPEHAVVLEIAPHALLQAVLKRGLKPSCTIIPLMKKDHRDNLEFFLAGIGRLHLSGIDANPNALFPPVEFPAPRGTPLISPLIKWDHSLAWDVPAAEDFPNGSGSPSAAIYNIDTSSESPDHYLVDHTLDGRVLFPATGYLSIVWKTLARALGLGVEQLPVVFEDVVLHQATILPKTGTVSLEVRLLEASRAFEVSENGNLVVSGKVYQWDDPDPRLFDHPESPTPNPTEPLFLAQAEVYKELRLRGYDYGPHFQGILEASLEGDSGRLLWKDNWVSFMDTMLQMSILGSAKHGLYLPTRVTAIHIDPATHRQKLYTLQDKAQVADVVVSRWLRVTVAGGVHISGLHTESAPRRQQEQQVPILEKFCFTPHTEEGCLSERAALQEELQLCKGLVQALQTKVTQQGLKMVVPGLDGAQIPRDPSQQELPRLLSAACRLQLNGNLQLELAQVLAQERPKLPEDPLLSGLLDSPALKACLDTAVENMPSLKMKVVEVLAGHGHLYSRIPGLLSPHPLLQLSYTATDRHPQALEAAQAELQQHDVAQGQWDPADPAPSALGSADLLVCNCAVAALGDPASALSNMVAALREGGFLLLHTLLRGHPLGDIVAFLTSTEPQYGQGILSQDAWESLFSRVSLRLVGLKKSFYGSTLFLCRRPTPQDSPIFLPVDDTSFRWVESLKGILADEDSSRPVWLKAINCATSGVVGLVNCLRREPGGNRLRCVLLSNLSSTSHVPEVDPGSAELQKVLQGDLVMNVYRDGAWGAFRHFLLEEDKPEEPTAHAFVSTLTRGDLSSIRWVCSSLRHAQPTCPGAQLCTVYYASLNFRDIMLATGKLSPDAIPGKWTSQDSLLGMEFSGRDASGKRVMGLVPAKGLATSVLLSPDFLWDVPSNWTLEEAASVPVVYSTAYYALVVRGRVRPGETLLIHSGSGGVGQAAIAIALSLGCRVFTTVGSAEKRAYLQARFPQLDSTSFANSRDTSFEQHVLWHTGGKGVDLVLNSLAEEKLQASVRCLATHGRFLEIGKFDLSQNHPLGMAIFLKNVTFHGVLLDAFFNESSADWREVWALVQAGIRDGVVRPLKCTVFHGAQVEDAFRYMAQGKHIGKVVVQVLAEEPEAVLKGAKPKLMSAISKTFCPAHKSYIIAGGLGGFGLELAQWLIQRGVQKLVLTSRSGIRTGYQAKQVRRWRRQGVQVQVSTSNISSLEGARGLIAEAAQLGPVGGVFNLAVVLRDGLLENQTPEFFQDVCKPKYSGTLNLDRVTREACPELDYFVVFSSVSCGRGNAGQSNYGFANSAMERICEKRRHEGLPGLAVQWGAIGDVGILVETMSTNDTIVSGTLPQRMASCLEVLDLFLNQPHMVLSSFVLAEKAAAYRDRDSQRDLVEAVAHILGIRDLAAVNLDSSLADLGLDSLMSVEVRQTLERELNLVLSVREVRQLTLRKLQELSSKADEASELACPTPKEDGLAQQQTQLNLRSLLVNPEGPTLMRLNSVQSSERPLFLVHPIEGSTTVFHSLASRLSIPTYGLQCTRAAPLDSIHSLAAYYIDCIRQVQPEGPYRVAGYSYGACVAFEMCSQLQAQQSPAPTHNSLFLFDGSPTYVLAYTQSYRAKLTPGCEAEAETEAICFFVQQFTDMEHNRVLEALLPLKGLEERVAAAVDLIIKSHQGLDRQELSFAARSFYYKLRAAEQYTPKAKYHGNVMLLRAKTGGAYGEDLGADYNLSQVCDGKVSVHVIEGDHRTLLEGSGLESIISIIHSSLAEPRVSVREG

Fatty acid synthase [9] = target: T3, Fatty acid synthase; experiment: FAS thioesterase domain inhibitors, dose response, biochemical, kinetic fluorescence intensity (AID 624326); type: functional;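 also: rate of fluorescence rise from hydrolysis of a fluorogenic O-methyl fluorescein ester substrate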
Large T antigen = Large T antigen (Simian virus 40, UniProt P03070); type: functional, Betapolyomavirus macacae;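 also: Confirmatory-stage PubChem screen for compounds that inhibit SV40 T antigen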
Sequence of Large T antigen (P03070 whole entry): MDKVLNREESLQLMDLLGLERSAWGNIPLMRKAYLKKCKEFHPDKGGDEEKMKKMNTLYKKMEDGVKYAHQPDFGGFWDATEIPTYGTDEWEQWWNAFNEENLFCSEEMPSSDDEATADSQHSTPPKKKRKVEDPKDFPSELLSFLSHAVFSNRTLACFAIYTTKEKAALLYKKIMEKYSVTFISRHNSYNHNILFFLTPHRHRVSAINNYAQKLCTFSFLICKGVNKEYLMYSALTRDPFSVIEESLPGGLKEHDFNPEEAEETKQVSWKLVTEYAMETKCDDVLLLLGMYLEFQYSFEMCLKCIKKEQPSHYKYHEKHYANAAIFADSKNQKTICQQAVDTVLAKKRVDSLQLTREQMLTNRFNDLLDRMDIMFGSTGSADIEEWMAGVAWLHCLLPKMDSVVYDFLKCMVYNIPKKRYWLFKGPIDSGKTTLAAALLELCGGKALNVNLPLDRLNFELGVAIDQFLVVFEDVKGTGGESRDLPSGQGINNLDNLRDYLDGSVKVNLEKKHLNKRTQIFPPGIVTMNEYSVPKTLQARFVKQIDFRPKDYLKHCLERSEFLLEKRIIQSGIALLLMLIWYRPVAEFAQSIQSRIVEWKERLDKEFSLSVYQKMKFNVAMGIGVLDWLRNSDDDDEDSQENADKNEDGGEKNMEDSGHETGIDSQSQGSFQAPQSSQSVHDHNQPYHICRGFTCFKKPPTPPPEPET

[10] = target: Bifunctional protein GlmU (Mycobacterium tuberculosis, UniProt P9WMN3); experiment: Inhibitors of Mycobacterial Glucosamine-1-phosphate acetyl transferase (GlmU). Secondary screen.; set-up: species or system Mycobacterium tuberculosis H37Rv
[11] = target: Tyrosine-protein phosphatase non-receptor type 11 (Homo sapiens, UniProt Q06124); experiment: SHP2 phosphatase inhibition, dose response, selectivity assay for STEP inhibitor project, biochemical (AID 602367); type: functional; conditions: read-out: IC50_Mean
[12] = target: Dual specificity protein phosphatase 3 (Homo sapiens, UniProt P51452); experiment: VHR phosphatase inhibition, dose response, selectivity assay for STEP inhibitor project, biochemical (AID 602374); type: functional; conditions: read-out: IC50_Mean
[13] = target: T4, Tyrosine-protein phosphatase non-receptor type 22 (Homo sapiens, UniProt Q9Y2R2); experiment: PTPN22 phosphatase inhibition, dose response, selectivity assay for STEP inhibitor project, biochemical (AID 624241); type: functional
T4 sequence (Q9Y2R2 whole entry): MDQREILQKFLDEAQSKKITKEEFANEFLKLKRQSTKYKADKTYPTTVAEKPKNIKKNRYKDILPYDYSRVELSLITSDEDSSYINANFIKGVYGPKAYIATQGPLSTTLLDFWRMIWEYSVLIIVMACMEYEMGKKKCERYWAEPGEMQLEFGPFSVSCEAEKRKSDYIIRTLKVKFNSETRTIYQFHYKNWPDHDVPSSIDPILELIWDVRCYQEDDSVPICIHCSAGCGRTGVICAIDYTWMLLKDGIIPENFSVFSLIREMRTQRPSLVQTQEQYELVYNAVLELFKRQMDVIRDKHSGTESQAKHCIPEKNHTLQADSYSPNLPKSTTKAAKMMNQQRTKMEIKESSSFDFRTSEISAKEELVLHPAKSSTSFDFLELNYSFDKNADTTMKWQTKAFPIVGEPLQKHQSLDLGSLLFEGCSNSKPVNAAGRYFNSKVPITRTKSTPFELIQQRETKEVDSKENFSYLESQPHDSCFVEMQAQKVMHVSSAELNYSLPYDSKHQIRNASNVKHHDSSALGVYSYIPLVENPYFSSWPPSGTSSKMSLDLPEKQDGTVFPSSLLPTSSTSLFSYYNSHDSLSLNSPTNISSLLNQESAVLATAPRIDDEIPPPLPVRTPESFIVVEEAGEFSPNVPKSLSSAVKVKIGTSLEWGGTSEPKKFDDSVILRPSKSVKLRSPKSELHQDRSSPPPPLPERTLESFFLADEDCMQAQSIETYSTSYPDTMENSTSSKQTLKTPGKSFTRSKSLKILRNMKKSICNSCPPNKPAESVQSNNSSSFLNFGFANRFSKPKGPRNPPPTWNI

T1 sequence (Q9P0U3 whole entry, the tested form may be a part): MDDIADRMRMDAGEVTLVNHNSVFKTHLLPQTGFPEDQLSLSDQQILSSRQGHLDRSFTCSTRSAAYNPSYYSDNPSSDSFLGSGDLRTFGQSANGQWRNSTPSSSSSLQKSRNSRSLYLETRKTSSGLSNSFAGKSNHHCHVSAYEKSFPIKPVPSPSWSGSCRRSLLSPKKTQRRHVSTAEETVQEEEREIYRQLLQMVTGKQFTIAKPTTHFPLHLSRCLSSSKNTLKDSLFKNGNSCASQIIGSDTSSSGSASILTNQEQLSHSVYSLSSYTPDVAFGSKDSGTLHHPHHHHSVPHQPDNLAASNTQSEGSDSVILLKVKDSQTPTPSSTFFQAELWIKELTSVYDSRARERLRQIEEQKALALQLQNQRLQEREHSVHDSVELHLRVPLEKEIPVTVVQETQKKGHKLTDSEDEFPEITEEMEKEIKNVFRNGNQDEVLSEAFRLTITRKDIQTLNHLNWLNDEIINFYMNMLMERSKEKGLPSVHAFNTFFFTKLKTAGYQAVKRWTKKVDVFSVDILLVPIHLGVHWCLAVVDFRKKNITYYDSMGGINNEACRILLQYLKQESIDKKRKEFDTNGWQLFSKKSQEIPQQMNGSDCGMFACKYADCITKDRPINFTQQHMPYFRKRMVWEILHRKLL

COc1ccc2c(c1)c1nc3ccccc3nc1n2Cc1ccc(OC(C)C)c(OC)c1
IC50 [1]: 24.4 µM (inactive) | IC50 [2]: 34.7 µM (inactive)

CC(C)(C)[C@H]1COC(=O)[C@H](NC(=O)OCC2c3ccccc3-c3ccccc32)C/C=C\C[C@@H](CC(=O)N[C@@H](CO)Cc2ccccc2)C(=O)N1
IC50 (Protein Wnt-3a): 18.6 µM (active)

NC(Cc1ccc(C(F)(F)F)cc1)c1csc(Nc2ccc(C(=O)NCc3ccco3)cn2)n1 (configuration not stated)
EC50 (Melanocortin receptor 4): > 9.91 µM (active) | EC50 [3]: > 7.173 µM

CC(=O)N1CCN(c2c(C)c(C)nc3cc(-c4cccc(F)c4)nn23)CC1
EC50 [4]: 4.22 µM (active) | EC50 [5]: 5.95 µM (inactive)

CCOC(=O)[C@]12Cc3cc(C)ccc3[C@H]1N(C1CCCCC1)C(=O)c1cc(OC)ccc12
IC50 [6]: 1.62 µM (active) | IC50 [7]: 4.3 µM (active) | IC50 (Beta Lactamase): 19.3 µM (inactive) | IC50 (Fatty acid synthase [8]): 5.45 µM (active) | IC50 (Fatty acid synthase [9]): 6.32 µM (active)

O=C(O)C(S)C(S)C(=O)O (configuration not stated)
IC50 (Large T antigen): 75.9 µM (active) | IC50 [10]: 181 µM (active) | IC50 [11]: 0.518 µM (active) | IC50 [12]: 3.22 µM (active) | IC50 [13]: 4.48 µM (active)
